The record followed here is publication PMC11249637, “Interaction of the Atypical Tetracyclines Chelocardin and Amidochelocardin with Renal Drug Transporters” (ACS Pharmacology & Translational Science, 2024).

For the data set, the target named is T1, mOat1 (Mus musculus, UniProt Q8VC69).
T1 construct: expressed in transfected cells; host or cells: HEK293
T1 sequence (Q8VC69 1-545): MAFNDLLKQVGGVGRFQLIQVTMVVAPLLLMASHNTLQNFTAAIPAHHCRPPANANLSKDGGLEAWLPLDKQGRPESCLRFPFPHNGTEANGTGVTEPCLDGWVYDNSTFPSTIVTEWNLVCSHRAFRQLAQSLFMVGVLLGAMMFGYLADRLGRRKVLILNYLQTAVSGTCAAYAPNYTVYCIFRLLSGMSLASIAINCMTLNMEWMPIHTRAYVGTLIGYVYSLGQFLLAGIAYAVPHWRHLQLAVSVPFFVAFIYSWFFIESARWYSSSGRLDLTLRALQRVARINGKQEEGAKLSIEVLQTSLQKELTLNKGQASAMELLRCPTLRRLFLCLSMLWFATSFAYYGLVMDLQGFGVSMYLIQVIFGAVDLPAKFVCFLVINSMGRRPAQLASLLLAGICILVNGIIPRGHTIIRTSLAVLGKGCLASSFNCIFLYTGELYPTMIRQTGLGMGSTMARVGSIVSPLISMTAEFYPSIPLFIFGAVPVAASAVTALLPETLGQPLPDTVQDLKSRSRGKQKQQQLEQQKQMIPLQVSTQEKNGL
Briefly: Three-point uptake (substrate assessment) in mOat1-overexpressing HEK293 cells. The following applies: 10 μM compound, 100 μM probenecid, 1 and 5 min. The format is in vitro ADME. As for the experimental part:
This is important to gain a better understanding of the underlying mechanisms of secretion into urine. Therefore, we assessed the amount of compound taken up by the vector and transporter cells at three different concentrations (1, 10, and 100 μM for mOat1 and mOct1; 0.1, 1, and 10 μM for mOat3) and at two different incubation periods (1 and 5 min for mOat1 and mOct1; 5 and 10 min for mOat3).
The incubation buffer contained CHD and CDCHD in a final concentration of 1, 10, and 100 μM. After 1 and 5 min, the incubation was terminated. In addition, the probe inhibitor probenecid (100 μM) was added in one concentration to 10 μM CHD and CDCHD, respectively, and after 1 and 5 min, the incubation was stopped. Inhibition of mOat1-mediated ^3H-PAH (10 μM) uptake by 100 μM probenecid was performed as a control experiment. After 1 min, the incubation was terminated. […]
First, a calibration curve was prepared by spiking different concentrations of CHD and CDCHD into the cell matrix. […] Samples were analyzed using an Agilent 1290 Infinity II HPLC system coupled to an AB Sciex QTrap6500plus mass spectrometer. […]
For statistical testing of differences in uptake ratio or for the inhibitory effect, an ordinary one-way ANOVA test was performed using GraphPad Prism 9.5.1 software. […] Michaelis–Menten kinetics were determined using the Michaelis–Menten algorithm of GraphPad Prism 9.5.1 software. […]

On to `CC(=O)C1=C(O)[C@@H](N)[C@H]2Cc3c(c(O)c4c(O)c(C)ccc4c3C)C(=O)[C@@]2(O)C1=O` [CHD, chelocardin], for which the “uptake ratio (cells without vs with probenecid), mOat1” value was less than 1.
